Test results from patent US12195482B1 (Arcus Biosciences, Inc., priority 2022, dated 2025).

How the values were obtained:
Axl = target: T1, Axl (Homo sapiens, UniProt P30530); test: Biochemical potency, HTRF KinEASE-TK kinase assay; set-up: purchased Invitrogen; details: 5 nM AXL, 700 μM ATP
T1 sequence (P30530 26-894): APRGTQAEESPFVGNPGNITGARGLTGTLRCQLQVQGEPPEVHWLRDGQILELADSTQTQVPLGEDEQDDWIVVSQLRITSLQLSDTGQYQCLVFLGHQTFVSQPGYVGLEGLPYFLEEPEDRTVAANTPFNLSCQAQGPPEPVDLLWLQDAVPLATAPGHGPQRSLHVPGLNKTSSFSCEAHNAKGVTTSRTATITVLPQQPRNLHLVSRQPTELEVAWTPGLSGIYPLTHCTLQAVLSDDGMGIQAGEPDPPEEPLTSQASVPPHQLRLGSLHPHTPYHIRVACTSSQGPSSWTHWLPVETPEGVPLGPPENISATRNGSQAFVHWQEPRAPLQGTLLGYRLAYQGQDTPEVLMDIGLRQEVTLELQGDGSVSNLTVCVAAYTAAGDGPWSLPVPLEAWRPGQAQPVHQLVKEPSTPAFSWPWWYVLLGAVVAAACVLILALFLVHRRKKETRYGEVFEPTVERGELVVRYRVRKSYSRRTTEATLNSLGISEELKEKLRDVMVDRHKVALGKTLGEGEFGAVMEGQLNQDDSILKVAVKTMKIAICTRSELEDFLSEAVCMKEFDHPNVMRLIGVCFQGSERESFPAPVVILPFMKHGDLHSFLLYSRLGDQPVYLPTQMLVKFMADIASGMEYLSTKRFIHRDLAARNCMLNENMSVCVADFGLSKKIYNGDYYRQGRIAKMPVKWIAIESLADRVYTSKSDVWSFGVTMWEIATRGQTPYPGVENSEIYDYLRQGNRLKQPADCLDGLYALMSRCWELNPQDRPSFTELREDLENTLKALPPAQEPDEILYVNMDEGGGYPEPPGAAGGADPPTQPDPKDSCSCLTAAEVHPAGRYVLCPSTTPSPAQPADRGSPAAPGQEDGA
Protocol: Measurement of Biochemical Compound Potency of Axl Inhibitors
Purified recombinant human AXL, TYRO3 and MER proteins were purchased from Invitrogen™. 10 nM AXL, 2 nM TYRO3 or MER were incubated with varying concentrations of compounds in 50 mM HEPES, pH 7.4, 10 mM MgCl2, 0.01% BSA, 1 mM DTT and 2% DMSO in a total volume of 20 μl in a 384-well microplate (Corning™ #3640) at RT for 1 h. The AXL, TYRO3 and MER enzymatic reaction was initiated by transferring 10 μl of enzyme and compound mixture into 10 μl of 1.6 μM TK Substrate-biotin (HTRF® KinEASE-TK kit, Cisbio) and 1400 μM ATP pre-incubated in 50 mM HEPES, pH 7.4, 10 mM MgCl2, 0.01% BSA, 1 mM DTT in a 384-well microplate (Corning™ #3640) at RT, giving the final reaction conditions: 5 nM AXL, 1 nM TYRO3 or MER, 800 nM TK Substrate-biotin and 700 μM ATP in 50 mM HEPES, pH 7.4, 10 mM MgCl2, 0.01% BSA, 1 mM DTT and 1% DMSO with varying concentrations of compounds. Following 2 h incubation at RT, the AXL, TYRO3 and MER enzymatic reaction was stopped by transfer of 10 μl of reaction into 10 μl of detection mix (400 nM Streptavidin-XL665, 200-fold dilution TK Antibody-Cryptate and detection buffer, HTRF® KinEASE-TK kit, Cisbio) in a white 384-well microplate (Perkin Elmer, OptiPlate 384). After 1 h incubation at RT, the plate was put into a plate reader (Evision) to read at 665/620 nm (acceptor/donor) for HTRF. The value of the DMSO blank (MIN inhibition=100% activity) was used as a negative control. The positive control was established by adding 5 μl of enzyme and DMSO mixture into 10 μl of detection mix followed by addition of 5 μl of TK Substrate-biotin and ATP mixture (MAX inhibition=0% activity). To calculate the percent activity, Equation 1 was used. Ratio665/620 is the value at a given compound concentration: […]

p-AXL = target: T2, p-AXL (Homo sapiens, UniProt P30530); test: Axl phosphorylation inhibition ELISA in HEK293T cells transfected with NanoLuc-tagged AXL; assay type: cell-based; details: 1 h compound incubation, media (OptiMEM)
T2 construct: expressed in transfected cells; host or cells: HEK293T
T2 sequence (P30530 26-894): T1 sequence (P30530 26-894)
Protocol: [formula] Measurement of Axl Phosphorylation Inhibition
The dose-response assays were performed in S-Bio PrimeSurface® 3D culture: Ultra-low Attachment Plates: 384 well, U bottom (#MS-9384UZ) containing 400 nL of 22 serial 2-fold compound dilutions using Bravo and Echo. ELISA assay was performed on Pierce™ streptavidin coated high capacity 384-well white plates (Thermofisher Cat #15505). The plates were coated overnight at 4° C. with 50 μl/well of biotinlyated phospho-tyrosine mouse mAb (Cell Signaling Technology, 9417s).
HEK293T cells were grown in DMEM containing 10% FBS, 1% Pen/Strep, 1% G-Max. A day before the assay, cells were transiently transfected with 6.8 μg of NanoLuc-tagged AXL plasmid DNA and 8 μg of carrier DNA using FuGENE® HD Transfection Reagent (Promega) according to manufacturer's instructions. On the day of the assay, transfected cells were harvested and resuspended in OptiMEM. 70,000 cells/well were added to the compounds containing assay plates. After a gentle mix and a short spin, the plates were incubated at 37° C. After 1 h, the cells were lysed followed by a brief centrifugation and 30 min of shaking at 300 rpm. Meanwhile, the antibody coated plates were brought to room temperature and then were washed ten times in PBS with 0.05% Tween 20 (ELISA-wash buffer). 50 μl/well of cell lysate was transferred to the ELISA plates and shaken for 2 hours. After washing again with the ELISA wash buffer, the samples were diluted with 25 μl of PBS. The captured NanoLuc tagged p-AXL was detected using Nano-Glo® Luciferase Assay System (Promega) and manufacturer's instruction. The luminescence signal was measured using Envision plate reader. IC50 values were determined by fitting the data to a standard 4-parameter logistic equation.

Row | SMILES | IC50 (Axl) [nM] | IC50 (p-AXL) [nM]
1 | Cc1cccnc1-c1ccc(-c2n[nH]c3ncc(-c4ccc5c(c4)CCN(C4CCCC4)CC5)cc23)cc1 [Example 24, 3-Cyclopentyl-7-{3-[4-(3-methylpyridin-2-yl)phenyl]-1H-pyrazolo[3,4-b]pyridin-5-yl}-2,3,4,5-tetrahydro-1H-3-benzazepine] | < 100 | 100 to 1000
2 | Cc1ccc(C)c(-c2ccc(-c3n[nH]c4ncc(-c5ccc6c(c5)CC[C@@H](N5CCCC5)CC6)cc34)cc2)n1 [Example 139, 3,6-Dimethyl-2-(4-{5-[(7S)-7-(pyrrolidin-1-yl)-6,7,8,9-tetrahydro-5H-benzo[7]annulen-2-yl]-1H-pyrazolo[3,4-b]pyridin-3-yl}phenyl)pyridine] | < 100 | < 100
3 | Cc1cnc(C)c(-c2ccc(-c3c[nH]c4ncc(-c5ccc6c(c5)CC[C@@H](N5C7COCC5C7)CC6)cc34)nc2)n1 [Example 69, 6-[(7S)-2-{3-[5-(3,6-Dimethylpyrazin-2-yl)pyridin-2-yl]-1H-pyrrolo[2,3-b]pyridin-5-yl}-6,7,8,9-tetrahydro-5H-benzo[7]annulen-7-yl]-3-oxa 6-azabicyclo[3.1.1]heptane] | < 100 | 100 to 1000
4 | CN1CCOc2ccnc(-c3ccc(-c4n[nH]c5ncc(-c6ccc7c(c6)CC[C@@H](N6C8COCC6C8)CC7)cc45)cc3)c21 [Example 151, 6-[(7S)-2-[3-(4-{4-Methyl-2H,3H,4H-pyrido[4,3-b][1,4]oxazin-5-yl}phenyl)-1H-pyrazolo[3,4-b]pyridin-5-yl]-6,7,8,9-tetrahydro-5H-benzo[7]annulen-7-yl]-3-oxa-6-azabicyclo[3.1.1]heptane] | < 100 | < 100
5 | Cc1ccc(C(N)=O)nc1-c1ccc(-c2c[nH]c3ncc(-c4ccc5c(c4)CC[C@@H](N4C6COCC4C6)CC5)cc23)cc1 [Example 76, 5-Methyl-6-(4-{5-[(7S)-7-{3-oxa-6-azabicyclo[3.1.1]heptan-6-yl}-6,7,8,9-tetrahydro-5H-benzo[7]annulen-2-yl]-1H-pyrrolo[2,3-b]pyridin-3-yl}phenyl)pyridine-2-carboxamide] | < 100 | < 100
6 | Cc1ccc(C(F)(F)F)nc1-c1ccc(-c2n[nH]c3ncc(-c4ccc5c(c4)CC[C@@H](N4C6COC[C@H]4C6)CC5)cc23)cc1 [Example 145, (1R)-6-[(7S)-2-(3-{4-[3-Methyl-6-(trifluoromethyl)pyridin-2-yl]phenyl}-1H-pyrazolo[3,4-b]pyridin-5-yl)-6,7,8,9-tetrahydro-5H-benzo[7]annulen-7-yl]-3-oxa-6-azabicyclo[3.1.1]heptane] | < 100 | 100 to 1000
7 | Cc1ccc(-c2ccc(-c3c[nH]c4ncc(-c5ccc6c(c5)CC[C@@H](N5C7COCC5C7)CC6)cc34)cc2)c(C)n1 [Example 73, 6-[(7S)-2-{3-[4-(2,6-Dimethylpyridin-3-yl)phenyl]-1H-pyrrolo[2,3-b]pyridin-5-yl}-6,7,8,9-tetrahydro-5H-benzo[7]annulen-7-yl]-3-oxa-6-azabicyclo[3.1.1]heptane] | < 100 | 100 to 1000
8 | Cc1ccc[n+]([O-])c1-c1ccc(-c2c[nH]c3ncc(-c4ccc5c(c4)CC[C@@H](N4C6COCC4C6)CC5)cc23)cc1 [Example 16, 3-Methyl-2-(4-{5-[(7S)-7-{3-oxa-6-azabicyclo[3.1.1]heptan-6-yl}-6,7,8,9-tetrahydro-5H-benzo[7]annulen-2-yl]-1H-pyrrolo[2,3-b]pyridin-3-yl}phenyl)pyridin-1-ium-1-olate] | < 100 | < 100
9 | Cn1ncnc1-c1ccc(-c2c[nH]c3ncc(-c4ccc5c(c4)CC[C@@H](N4C6COCC4C6)CC5)cc23)cc1 [Example 133, 6-[(7S)-2-{3-[4-(1-Methyl-1H-1,2,4-triazol-5-yl)phenyl]-1H-pyrrolo[2,3-b]pyridin-5-yl}-6,7,8,9-tetrahydro-5H-benzo[7]annulen-7-yl]-3-oxa-6-azabicyclo[3.1.1]heptane] | < 100 | < 100
10 | Cc1ccc(N2CCCC2=O)c(-c2ccc(-c3n[nH]c4ncc(-c5ccc6c(c5)CC[C@@H](N5C7COCC5C7)CC6)cc34)cc2)n1 [Example 198, 1-[6-Methyl-2-(4-{5-[(7S)-7-{3-oxa-6-azabicyclo[3.1.1]heptan-6-yl}-6,7,8,9-tetrahydro-5H-benzo[7]annulen-2-yl]-1H-pyrazolo[3,4-b]pyridin-3-yl}phenyl)pyridin-3-yl]pyrrolidin-2-one] | < 100 | 100 to 1000
11 | Cc1ccc(C)c(-c2ccc(-c3n[nH]c4ncc(-c5ccc6c(c5)CC[C@@](C)(N5CCC[C@H]5C)CC6)cc34)cc2)n1 [Example 136, 3,6-Dimethyl-2-(4-{5-[(7S)-7-methyl-7-[(2R)-2-methylpyrrolidin-1-yl]-6,7,8,9-tetrahydro-5H-benzo[7]annulen-2-yl]-1H-pyrazolo[3,4-b]pyridin-3-yl}phenyl)pyridine] | < 100 | < 100
12 | Cc1cccnc1-c1ccc(-c2c[nH]c3nnc(-c4ccc5c(c4)CC[C@@](C)(N4CCC[C@H]4C)CC5)cc23)cc1 [Example 18, 3-[(7S)-7-Methyl-7-[(2R)-2-methylpyrrolidin-1-yl]-5,6,8,9-tetrahydrobenzo[7]annulen-3-yl]-5-[4-(3-methylpyridin-2-yl)phenyl]-7H-pyrrolo[2,3-c]pyridazine] | < 100 | < 100
13 | Cc1cccnc1-c1cccc(-c2c[nH]c3ncc(-c4ccc5c(c4)CC[C@@H](N4C6COCC4C6)CC5)cc23)c1 [Example 82, 6-[(7S)-2-{3-[3-(3-Methylpyridin-2-yl)phenyl]-1H-pyrrolo[2,3-b]pyridin-5-yl}-6,7,8,9-tetrahydro-5H-benzo[7]annulen-7-yl]-3-oxa-6-azabicyclo[3.1.1]heptane] | < 100 | < 100
14 | Cc1ccc(C)c(-c2ccc(-c3c[nH]c4ncc(-c5ccc6c(c5)CC[C@@H](N5C7COC[C@H]5C7)CC6)cc34)nc2)n1 [Example 142, 3,6-Dimethyl-6′-{5-[(7S)-7-[(1R)-3-oxa-6-azabicyclo[3.1.1]heptan-6-yl]-6,7,8,9-tetrahydro-5H-benzo[7]annulen-2-yl]-1H-pyrrolo[2,3-b]pyridin-3-yl}-2,3′-bipyridine] | < 100 | < 100
